Like-named read-outs stand apart in the source and are kept apart here.
Key:
[1] = tested on: MV4:11 human cancer cell lines; experiment: Anti-proliferative activity, CellTiter-Glo viability assay, 7 day protocol; type: cell-based; conditions: Homo sapiens, MV4:11 cells, 7 day incubation, read-out: GI50 on cellular proliferation of MV4:11 human cancer cell lines
Outline: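 Luminescent CellTiter-Glo readout after 7-day compound exposure of MV4:11 cells plated at 3600 cells/ml (final DMSO 0.1%). GI50 derived from three biological × three technical replicates, reported as mean ± S.E.M.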

WDR5 = WDR5 (Homo sapiens (Human), UniProt P61964); experiment: TR-FRET binding assay (displacement of 10mer-Thr-FAM probe from WDR5); conditions: read-out: Ki for Inhibition of WDR5 by TR-FRET assay
[2] = TR-FRET, 10mer-Thr-FAM probe, WDR5-His tag 2 nM, pH 7.0

Row | SMILES | GI50 ([1]; MV4-11, 168 h) [nM] | Ki (WDR5) [nM] | Ki (WDR5; [2]) [nM] | GI50 ([1]; 168 h) [nM]
1 | N=C1SCCN1Cc1cc(C(=O)N[C@H](c2ccc(Cl)c(Cl)c2)C2CC2)cc(-c2ccc(F)cc2OC(F)F)c1 [Example 309, (S)—N-(Cyclopropyl(3,4-dichlorophenyl)methyl)-2′-(difluoromethoxy)-4′-fluoro-5-((2-iminothiazolidin-3-yl)methyl)-[1,1′-biphenyl]-3-carboxamide] | 960 | 0.77 | – | –
2 | Cn1cc(-c2cc(CN3CCSC3=N)cc(C(=O)N[C@H](c3ccc(Cl)c(Cl)c3)C3CC3)c2)c(C(F)(F)F)n1 [Example 310, (S)—N-(Cyclopropyl(3,4-dichlorophenyl)methyl)-3-((2-iminothiazolidin-3-yl)methyl)-5-(1-methyl-3-(trifluoromethyl)-1H-pyrazol-4-yl)benzamide] | 170 | < 0.1 | – | –
3 | CCn1cc(-c2cc(CN3CCSC3=N)cc(C(=O)N[C@H](c3ccc(F)c(C)c3)C3CC3)c2)c(C(F)(F)F)n1 [Example 312, (S)—N-(Cyclopropyl (4-fluoro-3-methylphenyl)methyl)-3-(1-ethyl-3-(trifluoromethyl)-1H-pyrazol-4-yl)-5-((2-iminothiazolidin-3-yl)methyl)benzamide] | < 100 | – | < 0.1 | –
4 | CCn1cc(-c2cc(Cn3ccsc3=N)cc(C(=O)N[C@H](c3ccc(F)c(C)c3)C3CC3)c2)c(C(F)(F)F)n1 [Example 320, (S)—N-(Cyclopropyl(4-fluoro-3-methylphenyl)methyl)-3-(1-ethyl-3-(trifluoromethyl)-1H-pyrazol-4-yl)-5-((2-iminothiazol-3(2H)-yl)methyl)benzamide] | < 100 | – | < 0.1 | –
5 | Cc1cc([C@@H](NC(=O)c2cc(Cn3ccsc3=N)cc(-c3cn(C)nc3C(F)(F)F)c2)C2CC2)ccc1F [Example 321, (S)—N-(Cyclopropyl(4-fluoro-3-methylphenyl)methyl)-3-((2-iminothiazol-3(2H)-yl)methyl)-5-(1-methyl-3-(trifluoromethyl)-1H-pyrazol-4-yl)benzamide] | < 100 | – | < 0.1 | –
6 | Cc1cc([C@@H](NC(=O)c2cc(Cn3ccsc3=N)cc(-c3cn(C(C)C)nc3C(F)(F)F)c2)C2CC2)ccc1F [Example 322, (S)—N-(Cyclopropyl(4-fluoro-3-methylphenyl)methyl)-3-((2-iminothiazol-3(2H)-yl)methyl)-5-(1-isopropyl-3-(trifluoromethyl)-1H-pyrazol-4-yl)benzamide] | 150 | < 0.1 | – | –
7 | CCn1cc(-c2cc(Cn3ccsc3=N)cc(C(=O)N[C@H](c3ccc(Cl)c(F)c3)C3CC3)c2)c(C(F)(F)F)n1 [Example 324, (S)—N-((4-Chloro-3-fluorphenyl)(cyclopropyl)methyl)-3-(1-ethyl-3-(trifluoromethyl)-1H-pyrazol-4-yl)-5-((2-iminothiazol-3(2H)-yl)methyl)benzamide] | < 100 | < 0.1 | – | –
8 | Cc1cc([C@@H](NC(=O)c2cc(Cn3ccsc3=N)cc(-c3cn(C)nc3C(F)(F)F)c2)C2CC2)ncc1F [Example 325, (S)—N-(Cyclopropyl(5-fluoro-4-methylpyridin-2-yl)methyl)-3-((2-iminothiazol-3(2H)-yl)methyl)-5-(1-methyl-3-(trifluoromethyl)-1H-pyrazol-4-yl)benzamide] | < 100 | – | < 0.1 | –
9 | COc1cc([C@@H](NC(=O)c2cc(Cn3ccsc3=N)cc(-c3cn(C)nc3C(F)(F)F)c2)C2CC2)ccc1F [Example 327, (S)—N-(Cyclopropyl(4-fluoro-3-methoxyphenyl)methyl)-3-((2-iminothiazol-3(2H)-yl)methyl)-5-(1-methyl-3-(trifluoromethyl)-1H-pyrazol-4-yl)benzamide] | < 100 | – | < 0.1 | –
10 | CCn1cc(-c2cc(Cn3ccsc3=N)cc(C(=O)N[C@H](c3ccc(F)c(OC)c3)C3CC3)c2)c(C(F)(F)F)n1 [Example 328, (S)—N-(Cyclopropyl(4-fluoro-3-methoxyphenyl)methyl)-3-(1-ethyl-3-(trifluoromethyl)-1H-pyrazol-4-yl)-5-((2-iminothiazol-3(2H)-yl)methyl)benzamide] | < 100 | – | < 0.1 | –
11 | Cc1cc([C@@H](NC(=O)c2cc(CN3CCCC3=N)cc(-c3ccc(F)cc3C#N)c2)C2CC2)ccc1F [Example 333, (S)-2′-Cyano-N-(cyclopropyl(4-fluoro-3-methylphenyl)methyl)-4′-fluoro-5-((2-iminopyrrolidin-1-yl)methyl)-[1,1′-biphenyl]-3-carboxamide] | 520 | – | 0.39 | –
12 | Cc1cc([C@@H](NC(=O)c2cc(CN3CCCC3=N)cc(-c3cccnc3C(F)(F)F)c2)C2CC2)ccc1F [Example 334, (S)—N-(Cyclopropyl(4-fluoro-3-methylphenyl)methyl)-3-((2-iminopyrrolidin-1-yl)methyl)-5-(2-(trifluoromethyl)pyridin-3-yl)benzamide] | < 100 | – | < 0.1 | –
13 | Cc1cc([C@@H](NC(=O)c2cc(CN3CCCC3=N)cc(-c3ccc(F)cc3C(F)(F)F)c2)C2CC2)ccc1F [Example 335, (S)—N-(Cyclopropyl(4-fluoro-3-methylphenyl)methyl)-4′-fluoro-5-((2-iminopyrrolidin-1-yl)methyl)-2′-(trifluoromethyl)-[1,1′-biphenyl]-3-carboxamide] | < 100 | – | < 0.1 | –
14 | Cc1cc([C@@H](NC(=O)c2cc(CN3CCCC3=N)cc(-c3cn(C(C)C)nc3C(F)(F)F)c2)C2CC2)ccc1F [Example 336, (S)—N-(Cyclopropyl(4-fluoro-3-methylphenyl)methyl)-3-((2-iminopyrrolidin-1 yl)methyl)-5-(1-isopropyl-3-(trifluoromethyl)-1H-pyrazol-4-yl)benzamide] | < 100 | – | < 0.1 | –
15 | Cc1cc([C@@H](NC(=O)c2cc(CN3CCCC3=N)cc(-c3cn(C)nc3C(F)(F)F)c2)C2CC2)ccc1F [Example 337, (S)—N-(Cyclopropyl(4-fluoro-3-methylphenyl)methyl)-3-((2-iminopyrrolidin-1-yl)methyl)-5-(1-methyl-3-(trifluoromethyl)-1H-pyrazol-4-yl)benzamide] | < 100 | – | < 0.1 | –
16 | CCn1cc(-c2cc(CN3CCCC3=N)cc(C(=O)N[C@H](c3ccc(F)c(Cl)c3)C3CC3)c2)c(C(F)(F)F)n1 [Example 338, (S)—N-((3-Chloro-4-fluorophenyl)(cyclopropyl)methyl)-3-(1-ethyl-3-(trifluoromethyl)-1H-pyrazol-4-yl)-5-((2-iminopyrrolidin-1-yl)methyl)benzamide] | < 100 | – | < 0.1 | –
17 | COc1cc([C@@H](NC(=O)c2cc(CN3CCCC3=N)cc(-c3cn(C)nc3C(F)(F)F)c2)C2CC2)ccc1F [Example 339, (S)—N-(Cyclopropyl(4-fluoro-3-methoxyphenyl)methyl)-3-((2-iminopyrrolidin-1-yl)methyl)-5-(1-methyl-3-(trifluoromethyl)-1H-pyrazol-4-yl)benzamide] | 100 | < 0.1 | – | –
18 | N=C1CCCN1Cc1cc(C(=O)N[C@H](c2ccc(F)c(Cl)c2)C2CC2)cc(-c2cccnc2C(F)(F)F)c1 [Example 340, (S)—N-((3-Chloro-4-fluorophenyl)(cyclopropyl)methyl)-3-((2-iminopyrrolidin-1-yl)methyl)-5-(2-(trifluoromethyl)pyridin-3-yl)benzamide] | < 100 | – | < 0.1 | –
19 | Cn1cc(-c2cc(CN3CCCC3=N)cc(C(=O)N[C@H](c3ccc(F)c(F)c3)C3CC3)c2)c(C(F)(F)F)n1 [Example 341, (S)—N-(Cyclopropyl(3,4-difluorophenyl)methyl)-3-((2-iminopyrrolidin-1-yl)methyl)-5-(1-methyl-3-(trifluoromethyl)-1H-pyrazol-4-yl)benzamide] | 100 | – | 0.35 | –
20 | Cc1cc([C@@H](NC(=O)c2cc(Cn3ccccc3=N)cc(-c3cccnc3C(F)(F)F)c2)C2CC2)ccc1F [Example 342, (S)—N-(Cyclopropyl(4-fluoro-3-methylphenyl)methyl)-3-((2-iminopyridin-1(2H)-yl)methyl)-5-(2-(trifluoromethyl)pyridin-3-yl)benzamide] | < 100 | – | < 0.1 | –
21 | Cc1cc([C@@H](NC(=O)c2cc(Cn3cccc(C)c3=N)cc(-c3cccnc3C(F)(F)F)c2)C2CC2)ccc1F [Example 343, (S)—N-(Cyclopropyl(4-fluoro-3-methylphenyl)methyl)-3-((2-imino-3-methylpyridin-1(2H)-yl)methyl)-5-(2-(trifluoromethyl)pyridin-3-yl)benzamide] | 250 | – | 0.51 | –
22 | Cc1ccn(Cc2cc(C(=O)N[C@H](c3ccc(F)c(C)c3)C3CC3)cc(-c3cccnc3C(F)(F)F)c2)c(=N)c1 [Example 344, (S)—N-(Cyclopropyl(4-fluoro-3-methylphenyl)methyl)-3-((2-imino-4-methylpyridin-1(2H)-yl)methyl)-5-(2-(trifluoromethyl)pyridin-3-yl)benzamide] | 680 | 0.48 | – | –
23 | CCOc1c(C(=O)N[C@H](c2ccc(F)c(C)c2)C2CC2)cc(Cn2ccccc2=N)cc1-c1cn(C)nc1C(F)(F)F [Example 347, (S)—N-(Cyclopropyl(4-fluoro-3-methylphenyl)methyl)-2-ethoxy-5-((2-iminopyridin-(2H)-yl)methyl)-3-(1-methyl-3-(trifluoromethyl)-1H-pyrazol-4-yl)benzamide] | < 100 | – | < 0.1 | –
24 | CCOc1c(C(=O)N[C@H](c2ccc(F)c(C)c2)C2CC2)cc(Cn2cc(F)ccc2=N)cc1-c1cn(C)nc1C(F)(F)F [Example 349, (S)—N-(Cyclopropyl(4-fluoro-3-methylphenyl)methyl)-2-ethoxy-5-((5-fluoro-2-iminopyridin-1(2H)-yl)methyl)-3-(1-methyl-3-(trifluoromethyl)-1H-pyrazol-4-yl)benzamide] | – | < 0.1 | – | < 100
